Laboratory results taken from patent publication US20040219100A1, “Composition useful for the treatment of tumors” (priority 2003, published 2004).

Test system: JJ5 Breast Cancer cells
Experiment: Kinetics of binding and retention of radioactivity by the cells
Assay type: cell-based, human
Text: Breast cancer cells express up to 100-fold higher levels of EGFR than do normal epithelial tissues. EGFR expression in breast cancer bone metastasis biopsies ranged from 1-1300 fmol/mg membrane protein (approximately 400-1,000,000 receptors/cell) and was associated with high relapse rates and poor long term survival. Normal epithelial cells express <10^4 receptors/cell. For the normal breast cell line HBL-100, 8000 EGFR/cell has been reported. The expression of EGFR in breast cancer cell lines has a reported range of 800 EGFR/cell for MCF-7 cells to 10^6 EGFR/cell for MDA-MB-468 cells. […] Utilizing the Auger electron emitter ^111In was used in the initial experiments to illustrate the utility of the invention using EGF-^111In-labeled transferrin compounds. […] The cell pellet was separated from the supernatant and counted in a g-scintillation counter to determine bound (B) and free (F) radioactivity. Non-specific binding was determined by conducting the assay in 100 nM hEGF. […] Internalized fraction was measured by determining the proportion of radioactivity which could not be displaced from the cell surface by 100 nM hEGF. Cell-associated binding (surface-binding and intracellular accumulation) was expressed as a percentage of medium radioactivity bound per mg of cell study protein.

For “EGF-^111In-labeled transferrin compound: human epidermal growth factor (EGF) operatively linked (peptide or PEG linker, biotin-streptavidin) to 111In-radiolabeled human transferrin”, the “retained by the breast cancer cells” value (37° C., JJ5 cells) was “at least 24 hours” and the “111In radioactivity lost from the cells in vitro” value (over a 24 hour period at 37° C.) was less than 8%.
